From patent US20200069607A1, “MOUTHWASH FOR TREATING ORAL CANCERS” (THE BOARD OF REGENTS OF THE UNIVERSITY OF TEXAS SYSTEM, priority 2016, published 2020) come the findings set out here.

For one test, the system named is Ca127 cells. Nature of the test: Calcium imaging of Ca127 cells. The format is cell-based. Conditions: for effect of inhibitor pre-treatment on calcium influx in response to thymol: Ca127 cells, pre-treatment followed by thymol 400 μM. The text has this: (§1) FIGS. 6A-D: Calcium imaging of CHO cells overexpressing TRPA1 (FIG. 6A) or TRPV1 (FIG. 6B). Calcium imaging of cancer cell lines, Ca127 (FIG. 6C) and HeLa (FIG. 6D).
(§2) […]. […] […].

Test [1] has as its system HeLa (Cervical cancer) cells. Nature of the test: Cell viability / proliferation assay, HeLa cells. To be noted: Homo sapiens, 48 h, read-out: IC50, anti-proliferative effect.
The next test deals with T1, TRPV1 (Homo sapiens, UniProt Q8NER1).
T1 construct: expressed in transfected cells; host or cells: CHO cells
T1 sequence (Q8NER1 whole entry, species assumed): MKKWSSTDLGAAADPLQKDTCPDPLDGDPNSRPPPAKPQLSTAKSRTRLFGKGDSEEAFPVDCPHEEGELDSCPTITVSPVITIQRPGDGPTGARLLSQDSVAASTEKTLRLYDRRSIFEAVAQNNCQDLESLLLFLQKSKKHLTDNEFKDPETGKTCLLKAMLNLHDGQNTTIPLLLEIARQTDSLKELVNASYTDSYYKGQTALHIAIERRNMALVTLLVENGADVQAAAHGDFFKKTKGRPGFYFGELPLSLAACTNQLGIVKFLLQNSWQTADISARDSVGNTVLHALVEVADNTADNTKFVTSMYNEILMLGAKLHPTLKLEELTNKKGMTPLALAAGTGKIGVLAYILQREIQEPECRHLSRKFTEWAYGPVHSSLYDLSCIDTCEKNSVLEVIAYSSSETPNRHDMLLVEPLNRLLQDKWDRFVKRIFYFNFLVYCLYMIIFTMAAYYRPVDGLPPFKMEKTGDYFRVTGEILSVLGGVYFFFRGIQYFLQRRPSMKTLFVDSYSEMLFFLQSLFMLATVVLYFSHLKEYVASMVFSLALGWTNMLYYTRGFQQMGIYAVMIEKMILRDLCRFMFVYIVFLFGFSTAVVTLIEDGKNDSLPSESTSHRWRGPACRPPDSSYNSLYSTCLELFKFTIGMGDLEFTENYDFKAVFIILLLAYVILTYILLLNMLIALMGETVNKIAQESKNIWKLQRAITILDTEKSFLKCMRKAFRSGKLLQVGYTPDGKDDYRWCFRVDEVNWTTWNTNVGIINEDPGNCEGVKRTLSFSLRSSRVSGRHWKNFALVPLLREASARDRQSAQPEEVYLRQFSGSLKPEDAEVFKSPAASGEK
Nature of the test: Calcium imaging of CHO cells overexpressing TRPV1. The format is cell-based.
Excerpt: as §1

Test [2] deals with HeLa cells. In words: Calcium imaging of HeLa cells. The format is cell-based. To be noted: negative for TRPA1, thymol treatment.
Excerpt: as §1, §2

Another test concerns the target T2, TRPA1 (Homo sapiens, UniProt O75762).
T2 construct: expressed in transfected cells; host or cells: CHO cells
In words: Calcium imaging of CHO cells overexpressing TRPA1. It counts as cell-based.
Excerpt: as §1

Another test relates to Ca127-derived tumors. In words: Ca127 mouse xenograft, intra-tumor injection.
The test system of test [3] is solid tumors (breast, lung, prostate, colon, cervical). Nature of the test: Anti-tumor effects against solid tumors (inventor's data). Conditions: all types of solid tumors (breast, lung, prostate, colon, cervical). An excerpt: However head and neck cancer is 90% of squamous cell origin.
The test system of a further test is HeLa-derived tumors. Nature of the test: HeLa mouse xenograft, intra-tumor injection.
For test [4], the system named is cleaved PARP (c-PARP). Nature of the test: Western blot of cleaved PARP, HeLa cells. The format is cell-based. To be noted: increasing concentrations of thymol.
Excerpt: as §2

Test [5] deals with cleaved PARP (c-PARP). In words: Western blot of cleaved PARP, Ca127 cells. To be noted: increasing concentrations of thymol. The format is cell-based.
Excerpt: as §2
(In general: In western blotting, separated proteins are transferred to a membrane and probed.)

A further test deals with Ca127. In words: Clonogenic assay, Ca127 cells.
The next test concerns Ca127 (OSCC) cells. Nature of the test: Cell viability / proliferation (MTS) assay, Ca127 cells. It counts as cell-based. Conditions: treated 24 hours, p<0.001, read-out: IC50, anti-proliferative effect.
The test system of test [6] is HeLa cells. Nature of the test: Clonogenic assay, HeLa cells.
Excerpt: FIGS. 3A-D: Clonogenic Assay of Ca127 (FIGS. 3A and 3C) and HeLa cells (FIGS. 3B and 3D).

Molecules are shown by their SMILES. pIC50: −log10 of the molar value.

T2 sequence (O75762 whole entry, species assumed): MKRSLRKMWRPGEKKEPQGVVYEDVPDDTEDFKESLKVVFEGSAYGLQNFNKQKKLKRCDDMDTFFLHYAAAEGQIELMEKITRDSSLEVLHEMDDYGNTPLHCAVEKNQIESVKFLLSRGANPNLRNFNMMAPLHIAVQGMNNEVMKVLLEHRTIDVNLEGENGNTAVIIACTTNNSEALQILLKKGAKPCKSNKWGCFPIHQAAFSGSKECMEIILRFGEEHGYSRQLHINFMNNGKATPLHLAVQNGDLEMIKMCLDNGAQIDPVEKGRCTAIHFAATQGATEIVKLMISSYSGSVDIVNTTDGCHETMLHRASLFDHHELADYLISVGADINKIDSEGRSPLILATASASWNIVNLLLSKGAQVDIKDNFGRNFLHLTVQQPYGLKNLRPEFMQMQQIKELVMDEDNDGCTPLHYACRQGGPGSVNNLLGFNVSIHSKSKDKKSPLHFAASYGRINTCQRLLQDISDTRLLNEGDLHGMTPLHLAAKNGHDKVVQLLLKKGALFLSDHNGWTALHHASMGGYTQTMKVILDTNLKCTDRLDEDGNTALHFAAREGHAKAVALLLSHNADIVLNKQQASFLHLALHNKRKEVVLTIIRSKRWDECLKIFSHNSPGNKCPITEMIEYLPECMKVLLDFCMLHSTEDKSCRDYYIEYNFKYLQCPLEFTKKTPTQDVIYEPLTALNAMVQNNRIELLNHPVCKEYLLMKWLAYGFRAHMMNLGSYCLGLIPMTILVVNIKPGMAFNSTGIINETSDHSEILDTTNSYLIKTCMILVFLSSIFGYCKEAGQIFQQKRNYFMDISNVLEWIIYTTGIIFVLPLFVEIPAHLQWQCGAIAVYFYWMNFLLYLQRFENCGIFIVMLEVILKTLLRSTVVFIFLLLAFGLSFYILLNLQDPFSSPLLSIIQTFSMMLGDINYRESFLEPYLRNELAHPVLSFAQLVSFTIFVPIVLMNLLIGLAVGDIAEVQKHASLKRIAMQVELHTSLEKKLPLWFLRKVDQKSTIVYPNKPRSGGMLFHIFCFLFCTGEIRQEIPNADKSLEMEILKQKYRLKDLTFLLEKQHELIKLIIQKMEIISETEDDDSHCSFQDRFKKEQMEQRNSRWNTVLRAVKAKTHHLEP

With `CC(C)c1ccc(NC(=O)Cn2cnc3c2c(=O)n(C)c(=O)n3C)cc1` [HC030031], the “effect of inhibitor pre-treatment on calcium influx in response to thymol” value in the test on Ca127 cells was “nearly abolished all calcium influx”.
For the molecule `O=C(O)c1ccc(S(=O)(=O)N(Cc2ccc(OC(F)(F)F)cc2)c2ncc(C(F)(F)F)cc2Cl)cc1` [RQ00203078], the “effect of inhibitor pre-treatment on calcium influx in response to thymol” value in the test on Ca127 cells is on record as “reduced calcium influx”.
Consider `Cc1ccc(C(C)C)c(O)c1` [thymol, 2-isopropyl-5-methylphenol], for which the negative logarithm of the IC50 (pIC50) (in test [1]; with Ca127 (OSCC) cells) was 3.40 in each case. Further, the “TRPV1 channel activation (calcium imaging)” value on TRPV1 is given as “not TRPV1 channels”. Further, in the test on HeLa cells [2], the calcium response result is recorded as “did not respond”. Besides, the “TRPA1 channel activation (calcium imaging)” value on TRPA1 is “activates TRPA1 channels”. Besides, the median tumor volume in the test on Ca127-derived tumors (Day 26, thymol 4.3 mM every other day, control 400 mm^3) is 100 mm^3; in the test on HeLa-derived tumors (Day 26 as printed, thymol 4.3 mM every other day for 22 days, control 900 mm^3), 500 mm^3. For the same molecule, the “tumor volume compared to control” value is given as “significant reduction” in the test on Ca127-derived tumors (by day 16, 4.3 mM intra-tumor every other day, p<0.001) and “significant reduction” in the test on HeLa-derived tumors (by day 18, remained through day 22, 4.3 mM intra-tumor every other day, p<0.001). Further, the average tumor volume worked out at 90 mm^3 in the test with Ca127-derived tumors (thymol 4.3 mM intra-tumor every other day for 26 days, control 400 mm^3) and 500 mm^3 in the test on HeLa-derived tumors (thymol 4.3 mM intra-tumor every other day for 22 days, control 900 mm^3). Further, the calcium influx entry with Ca127 cells (Ca127 cells expressing TRPA1, thymol 400 μM) was “small calcium influx”. Also, the anti-tumor effects result in [3] is listed as “anti-tumor effects”. The “activation of cleaved PARP (apoptosis)” value in the test on cleaved PARP (c-PARP) [4] and in the test on cleaved PARP (c-PARP) [5] was “dose-dependent activation” each time. The colony formation result is “abolished colony formation” in the test with Ca127 (Ca127 (FIGS. 3A-D), one minute exposure, 10 days); “abolished colony formation” with Ca127 (Ca127, single two minute exposure, 4.3 mM, ten days); “abolished colony formation” in the test with HeLa cells [6] (HeLa (FIGS. 3A-D), one minute exposure, 10 days); “abolished colony formation” with HeLa cells [6] (HeLa, single two minute exposure, 4.3 mM, ten days).

For orientation: pIC50 means the negative decadic logarithm of the IC50, by convention in mol/L.
